Laboratory results taken from the supplement of paper PMC8671470.
± gives the standard deviation of the averaged measurements.

What follows are compounds tested on HL-60 (assay: cell viability (% survival relative to DMSO control); higher = less cytotoxic). Conditions: 0.1 µM; 72 h; co-treatment: AZD3965 100 nM.
Method in brief: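 In 384-well plates, the full library was rescreened in duplicate on HL-60 cells in RPMI 1640 with 10% FBS, at 1–10,000 nM in five tenfold concentrations, for 72 h at 37 °C, 5% CO2. Each run also held DMSO or 100 nM of one of three metabolic inhibitors. Viability was measured by CellTiter-Glo and normalised to DMSO wells and to wells with proteasome inhibitor, present at 10 μM. Any area under the curve comes from four-parameter log-logistic fitting with drc and PharmacoGx.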
`CC(C)(CCCCCCCCCCC(C)(C)CC(=O)O)CC(=O)O` [MEDICA 16] was tested, and the cell viability was 105 ± 13%.
Work on `Cc1nnc(-c2ccc(N3CCC(Oc4ccccc4C(F)(F)F)CC3)nn2)s1` [MF-438] yielded a cell viability of 104 ± 2.1%.
Compound `CC(C)c1ccc2c(c1)c(SC(C)(C)C)c(CC(C)(C)C(=O)O)n2Cc1ccc(Cl)cc1` [MK-886] has a cell viability of 108 ± 7.9%.
`O=C(CCl)N(CCCNC(=O)C(F)(F)F)c1ccc([N+](=O)[O-])cc1` [ML175] gave a cell viability of 102.27 ± 0.062%.
`CN(C)C(=N)NC(=N)N` [Metformin] gave a cell viability of 103 ± 2.1%.
`Cl.OC[C@H]1NC[C@H](O)[C@@H](O)[C@H]1O` [Migalastat] gave a cell viability of 102.1 ± 0.12%.
`OCCN1C[C@H](O)[C@@H](O)[C@H](O)[C@H]1CO` [Miglitol] gave a cell viability of 94.8 ± 14%.
`CCCCCCCCCCCCC/C=C/[C@@H](O)[C@H](CO)N(C)C` [N,N-Dimethylsphingosine] was tested, and the cell viability was 100 ± 2.3%.
`CCCCCCCNC=O` [N-Heptyl-Formamide] gave a cell viability of 98 ± 6.2%.

Same assay, conditions: 0.1 µM; 72 h; co-treatment: DMSO vehicle
`O=C(Oc1ccc([N+](=O)[O-])cc1)N1CCC(C(O)(c2ccc3c(c2)OCO3)c2ccc3c(c2)OCO3)CC1` [JZL184] was tested, and the cell viability was 100.9 ± 0.17%.
Work on `O=C1N[C@@H]2[C@@H](O)[C@@H](O)[C@H](O)[C@@H](CO)N2C1=O` [Kifunensine] yielded a cell viability of 103 ± 3.2%.
`CC(C)(CCCCCCCCCCC(C)(C)CC(=O)O)CC(=O)O` [MEDICA 16] gave a cell viability of 103 ± 3.3%.
For `Cc1nnc(-c2ccc(N3CCC(Oc4ccccc4C(F)(F)F)CC3)nn2)s1` [MF-438], the cell viability was 102 ± 4%.
In the case of `CC(C)c1ccc2c(c1)c(SC(C)(C)C)c(CC(C)(C)C(=O)O)n2Cc1ccc(Cl)cc1` [MK-886], the cell viability is reported as 104.5 ± 0.84%.
In the case of `O=C(CCl)N(CCCNC(=O)C(F)(F)F)c1ccc([N+](=O)[O-])cc1` [ML175], the cell viability is reported as 99.79 ± 0.16%.
Work on `CN(C)C(=N)NC(=N)N` [Metformin] yielded a cell viability of 102.3 ± 0.63%.
`Cl.OC[C@H]1NC[C@H](O)[C@@H](O)[C@H]1O` [Migalastat] gave a cell viability of 96.5 ± 2.1%.
`OCCN1C[C@H](O)[C@@H](O)[C@H](O)[C@H]1CO` [Miglitol] was tested, and the cell viability was 96.3 ± 4.1%.
`CCCCCCCCCCCCC/C=C/[C@@H](O)[C@H](CO)N(C)C` [N,N-Dimethylsphingosine] showed a cell viability of 102 ± 6.8%.
`CCCCCCCNC=O` [N-Heptyl-Formamide] showed a cell viability of 98.6 ± 5%.

Same assay, conditions: 0.1 µM; 72 h; co-treatment: GSK2194069 100 nM
Work on `O=C(Oc1ccc([N+](=O)[O-])cc1)N1CCC(C(O)(c2ccc3c(c2)OCO3)c2ccc3c(c2)OCO3)CC1` [JZL184] yielded a cell viability of 99.2 ± 8.9%.
For `O=C1N[C@@H]2[C@@H](O)[C@@H](O)[C@H](O)[C@@H](CO)N2C1=O` [Kifunensine], the cell viability was 101 ± 1.8%.
`CC(C)(CCCCCCCCCCC(C)(C)CC(=O)O)CC(=O)O` [MEDICA 16] was tested, and the cell viability was 99 ± 5.8%.
`Cc1nnc(-c2ccc(N3CCC(Oc4ccccc4C(F)(F)F)CC3)nn2)s1` [MF-438] gave a cell viability of 93.3 ± 0.56%.
`CC(C)c1ccc2c(c1)c(SC(C)(C)C)c(CC(C)(C)C(=O)O)n2Cc1ccc(Cl)cc1` [MK-886] was tested, and the cell viability was 105 ± 13%.
With `O=C(CCl)N(CCCNC(=O)C(F)(F)F)c1ccc([N+](=O)[O-])cc1` [ML175] the cell viability was 98.3 ± 4.5%.
With `CN(C)C(=N)NC(=N)N` [Metformin] the cell viability was 109 ± 9.2%.
With `Cl.OC[C@H]1NC[C@H](O)[C@@H](O)[C@H]1O` [Migalastat] the cell viability was 104 ± 6%.
With `OCCN1C[C@H](O)[C@@H](O)[C@H](O)[C@H]1CO` [Miglitol] the cell viability was 91.7 ± 16%.
For `CCCCCCCCCCCCC/C=C/[C@@H](O)[C@H](CO)N(C)C` [N,N-Dimethylsphingosine], the cell viability was 103 ± 6%.
`CCCCCCCNC=O` [N-Heptyl-Formamide] gave a cell viability of 99.6 ± 2.1%.

Same assay, conditions: 0.1 µM; 72 h; co-treatment: pictilisib 100 nM
`O=C(Oc1ccc([N+](=O)[O-])cc1)N1CCC(C(O)(c2ccc3c(c2)OCO3)c2ccc3c(c2)OCO3)CC1` [JZL184] was tested, and the cell viability was 97.2 ± 3%.
`O=C1N[C@@H]2[C@@H](O)[C@@H](O)[C@H](O)[C@@H](CO)N2C1=O` [Kifunensine] gave a cell viability of 95.7 ± 2.5%.
`CC(C)(CCCCCCCCCCC(C)(C)CC(=O)O)CC(=O)O` [MEDICA 16] showed a cell viability of 93.9 ± 4%.
`Cc1nnc(-c2ccc(N3CCC(Oc4ccccc4C(F)(F)F)CC3)nn2)s1` [MF-438] gave a cell viability of 100 ± 1.9%.
Work on `CC(C)c1ccc2c(c1)c(SC(C)(C)C)c(CC(C)(C)C(=O)O)n2Cc1ccc(Cl)cc1` [MK-886] yielded a cell viability of 109 ± 11%.
Compound `O=C(CCl)N(CCCNC(=O)C(F)(F)F)c1ccc([N+](=O)[O-])cc1` [ML175] has a cell viability of 98.5 ± 3.1%.
`CN(C)C(=N)NC(=N)N` [Metformin] was tested, and the cell viability was 120 ± 10%.
In the case of `Cl.OC[C@H]1NC[C@H](O)[C@@H](O)[C@H]1O` [Migalastat], the cell viability is reported as 99.4 ± 5.2%.
Work on `OCCN1C[C@H](O)[C@@H](O)[C@H](O)[C@H]1CO` [Miglitol] yielded a cell viability of 86.9 ± 14%.
Work on `CCCCCCCCCCCCC/C=C/[C@@H](O)[C@H](CO)N(C)C` [N,N-Dimethylsphingosine] yielded a cell viability of 106 ± 3.5%.
Compound `CCCCCCCNC=O` [N-Heptyl-Formamide] has a cell viability of 78.6 ± 23%.

Same assay, conditions: 1 µM; 72 h; co-treatment: AZD3965 100 nM
For `O=C(Oc1ccc([N+](=O)[O-])cc1)N1CCC(C(O)(c2ccc3c(c2)OCO3)c2ccc3c(c2)OCO3)CC1` [JZL184], the cell viability was 98.7 ± 2.8%.
`O=C1N[C@@H]2[C@@H](O)[C@@H](O)[C@H](O)[C@@H](CO)N2C1=O` [Kifunensine] showed a cell viability of 99.3 ± 1.2%.
`CC(C)(CCCCCCCCCCC(C)(C)CC(=O)O)CC(=O)O` [MEDICA 16] showed a cell viability of 101 ± 8.2%.
`Cc1nnc(-c2ccc(N3CCC(Oc4ccccc4C(F)(F)F)CC3)nn2)s1` [MF-438] gave a cell viability of 101 ± 0.18%.
`CC(C)c1ccc2c(c1)c(SC(C)(C)C)c(CC(C)(C)C(=O)O)n2Cc1ccc(Cl)cc1` [MK-886] was tested, and the cell viability was 99.8 ± 2%.
In the case of `O=C(CCl)N(CCCNC(=O)C(F)(F)F)c1ccc([N+](=O)[O-])cc1` [ML175], the cell viability is reported as 104 ± 5.7%.
With `CN(C)C(=N)NC(=N)N` [Metformin] the cell viability was 94.9 ± 1.5%.
`Cl.OC[C@H]1NC[C@H](O)[C@@H](O)[C@H]1O` [Migalastat] gave a cell viability of 106 ± 2.9%.
Compound `OCCN1C[C@H](O)[C@@H](O)[C@H](O)[C@H]1CO` [Miglitol] has a cell viability of 102 ± 2.9%.
`CCCCCCCCCCCCC/C=C/[C@@H](O)[C@H](CO)N(C)C` [N,N-Dimethylsphingosine] was tested, and the cell viability was 100.26 ± 0.045%.
Compound `CCCCCCCNC=O` [N-Heptyl-Formamide] has a cell viability of 95 ± 12%.

Same assay, conditions: 1 µM; 72 h; co-treatment: DMSO vehicle
For `O=C(Oc1ccc([N+](=O)[O-])cc1)N1CCC(C(O)(c2ccc3c(c2)OCO3)c2ccc3c(c2)OCO3)CC1` [JZL184], the cell viability was 101 ± 2.3%.
`O=C1N[C@@H]2[C@@H](O)[C@@H](O)[C@H](O)[C@@H](CO)N2C1=O` [Kifunensine] showed a cell viability of 101 ± 3.6%.
`CC(C)(CCCCCCCCCCC(C)(C)CC(=O)O)CC(=O)O` [MEDICA 16] showed a cell viability of 101 ± 1.5%.
For `Cc1nnc(-c2ccc(N3CCC(Oc4ccccc4C(F)(F)F)CC3)nn2)s1` [MF-438], the cell viability was 100 ± 3.9%.
Work on `CC(C)c1ccc2c(c1)c(SC(C)(C)C)c(CC(C)(C)C(=O)O)n2Cc1ccc(Cl)cc1` [MK-886] yielded a cell viability of 107 ± 2.3%.
`O=C(CCl)N(CCCNC(=O)C(F)(F)F)c1ccc([N+](=O)[O-])cc1` [ML175] showed a cell viability of 99.8 ± 6%.
For `CN(C)C(=N)NC(=N)N` [Metformin], the cell viability was 95.9 ± 1.7%.
`Cl.OC[C@H]1NC[C@H](O)[C@@H](O)[C@H]1O` [Migalastat] showed a cell viability of 100 ± 1.6%.
`OCCN1C[C@H](O)[C@@H](O)[C@H](O)[C@H]1CO` [Miglitol] gave a cell viability of 94.9 ± 8.1%.
`CCCCCCCCCCCCC/C=C/[C@@H](O)[C@H](CO)N(C)C` [N,N-Dimethylsphingosine] gave a cell viability of 97.42 ± 0.24%.
`CCCCCCCNC=O` [N-Heptyl-Formamide] was tested, and the cell viability was 97.7 ± 4.5%.

Same assay, conditions: 1 µM; 72 h; co-treatment: GSK2194069 100 nM
`O=C(Oc1ccc([N+](=O)[O-])cc1)N1CCC(C(O)(c2ccc3c(c2)OCO3)c2ccc3c(c2)OCO3)CC1` [JZL184] was tested, and the cell viability was 101 ± 4.3%.
